Assays:
HDACs 1–3 = assay: HDAC biochemical assay, text summary over HDACs 1–3; design: species or system human; settings: summary of Table 1; for IC50: read-out: IC50 for HDACs 1–3; for IC50 range in words: HDACs 1–3 where stated, unit inside the printed words
HDAC1 = HDAC1 (Homo sapiens, UniProt Q13547); assay: HDAC biochemical assay; settings: relative to compound 6
[1] = tested on: 10326 NUT midline carcinoma cell line; assay: 10326 cell viability; format: cell-based; settings: 48 hours incubation, ATPLite; ± standard error of LogIC50
[2] = tested on: 797 NUT midline carcinoma cell line; assay: 797 cell viability; format: cell-based; settings: 48 hours incubation, ATPLite; ± standard error of LogIC50

HDAC1, sequence (Q13547 whole entry): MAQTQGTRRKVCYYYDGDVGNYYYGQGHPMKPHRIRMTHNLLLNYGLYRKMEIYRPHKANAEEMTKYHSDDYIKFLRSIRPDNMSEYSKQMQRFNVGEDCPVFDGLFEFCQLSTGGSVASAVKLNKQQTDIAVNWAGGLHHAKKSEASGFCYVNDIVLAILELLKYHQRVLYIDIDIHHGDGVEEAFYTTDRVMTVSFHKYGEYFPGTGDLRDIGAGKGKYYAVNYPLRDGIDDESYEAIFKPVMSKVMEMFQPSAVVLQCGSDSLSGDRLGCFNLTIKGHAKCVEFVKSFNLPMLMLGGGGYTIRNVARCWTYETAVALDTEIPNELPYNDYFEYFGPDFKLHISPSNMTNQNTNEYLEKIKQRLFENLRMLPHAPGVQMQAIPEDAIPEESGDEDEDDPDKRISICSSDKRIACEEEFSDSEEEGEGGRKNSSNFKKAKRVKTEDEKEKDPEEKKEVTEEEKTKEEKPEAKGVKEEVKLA

Structure (SMILES)	IC50 (HDACs 1–3) [nM]	IC50 range in words (HDACs 1–3)	fold decrease in activity in HDAC1 in going from 6 to its amide isostere (HDAC1) [fold]	10326 LogIC50 [1]	797 LogIC50 [2]
CC(C)[C@@H]1NC(=O)[C@]2(C)CSC(=N2)c2ccnc(c2)CNC(=O)C[C@@H](/C=C/CCS)OC1=O [Compound 8, Depsipeptide pyridyl “OUT” thiol]	< 25	single digit nM range	–	–	–
CC(C)[C@@H]1NC(=O)[C@]2(C)CSC(=N2)c2cccc(n2)CNC(=O)C[C@@H](/C=C/CCS)OC1=O [Compound 6, Depsipeptide pyridyl “IN” thiol]	< 25	single digit nM range	–	–	–
CC(C)[C@@H]1NC(=O)[C@]2(C)CSC(=N2)c2csc(n2)CNC(=O)C[C@@H](/C=C/CCS)OC1=O [Compound 2, Largazole thiol, reference compound]	< 25	–	–	–	–
CC(C)[C@@H]1NC(=O)[C@]2(C)CSC(=N2)c2cccc(n2)CNC(=O)C[C@@H](/C=C/CCS)NC1=O [Compound 10, Peptide isostere pyridyl “IN” thiol]	–	double-digit nM range	16	–	–
CC(C)[C@@H]1NC(=O)[C@]2(C)CSC(=N2)c2csc(n2)CNC(=O)C[C@@H](/C=C/CCS)NC1=O [Compound 4, Largazole peptide isostere thiol]	< 25	–	–	−4.923 ± 0.9900	−5.761 ± 0.05449
CC(C)[C@@H]1NC(=O)[C@]2(C)CSC(=N2)c2ccnc(c2)CNC(=O)C[C@@H](/C=C/CCS)NC1=O [Compound 12, Peptide isostere pyridyl “OUT” thiol]	< 25	double-digit nM range	–	–	–

Source: PMC4626217 (Bioorganic & medicinal chemistry, 2015)
